Reference: patent publication US7399763B2, “8-hydroxy-1-oxo-tetrahydropyrrolopyrazine compounds useful as HIV integrase inhibitors” (Merck & Co., Inc., priority 2002, dated 2008)

Test system: HIV
Test: Assay for inhibition of HIV replication (acute HIV infection of T-lymphoid cells)
Type: cell-based
Conditions: Human immunodeficiency virus 1, per Vacca et al. 1994
Description: Assay for Inhibition of HIV Replication
Assays for the inhibition of acute HIV infection of T-lymphoid cells were conducted in accordance with Vacca, J. P. et al., Proc. Natl. Acad. Sci. USA 1994, 91: 4096.

Structure (SMILES) | IC95
CCOC(=O)c1cn2c(c1O)C(=O)N(Cc1ccccc1)CC2 [Example 1, Ethyl 2-benzyl-8-hydroxy-1-oxo-1,2,3,4-tetrahydropyrrolo[1,2-α]pyrazine-7-carboxylate] | ≤ 20 µM
CCOC(=O)c1cn2c(c1O)C(=O)N(Cc1ccc(F)cc1)CC2 [Example 3, Ethyl 2-(4-fluorobenzyl)-8-hydroxy-1-oxo-1,2,3,4-tetrahydropyrrolo[1,2-]pyrazine-7-carboxylate] | ≤ 20 µM
CNC(=O)c1cn2c(c1O)C(=O)N(Cc1ccc(F)cc1)CC2 [Example 5, 2-(4-Fluorobenzyl)-8-hydroxy-N-methyl-1-oxo-1,2,3,4-tetrahydropyrrolo[1,2α]pyrazine-7-carboxamide] | ≤ 20 µM
CCNC(=O)c1cn2c(c1O)C(=O)N(Cc1ccc(F)cc1)CC2 [Example 6] | ≤ 20 µM
O=C(NC1CC1)c1cn2c(c1O)C(=O)N(Cc1ccc(F)cc1)CC2 [Example 7, 2-(4Fluorobenzyl)-8-hydroxy-N-cyclopropyl-1-oxo-1,2,3,4-tetrahydropyrrolo[1,2α]pyrazine-7-carboxamide] | ≤ 20 µM
CCOC(=O)c1cn2c(c1O)C(=O)N(Cc1cccc(Cl)c1)CC2 [Example 8, Ethyl 2(3-chlorobenzyl)-8-hydroxy-1-oxo-1,2,3,4-tetrahydropyrrolo[1,2-α]pyrazine-7-carboxylate] | ≤ 20 µM
CN1CCn2cc(C(=O)NCc3ccc(F)cc3)c(O)c2C1=O [Example 10, N-(4-Fluorobenzyl)-8-hydroxy-2-methyl-1-oxo-1,2,3,4-tetrahydropyrrolo[1,2-α]pyrazine-7-carboxamide] | ≤ 20 µM
CNC(=O)c1cn2c(c1O)C(=O)N(Cc1ccc(Cl)cc1)CC2 [Example 16, 2-(4-Chlorobenzyl)-8-hydroxy-N-methyl-1-oxo-1,2,3,4-tetrahydropyrrolo[1,2-α]pyrazine-7-carboxamide] | ≤ 20 µM
CNC(=O)c1cn2c(c1O)C(=O)N(Cc1ccc(F)c(F)c1)CC2 [Example 17, 2-(3,4-Difluorobenzyl)-8-hydroxy-N-methyl-1-oxo-1,2,3,4-tetrahydropyrrolo[1,2-α]pyrazine-7-carboxamide] | ≤ 20 µM
